Measured values taken from patent publication US6844365B2, “Substances for use in treating psoriasis” (Laboratoire Medidom S.A., priority 2000, dated 2005).

Columns and labels:
IL-8 = IL-8 release from keratinocytes by ELISA; assay type: cell-based, human
Procedure: (§1) UV-B radiation was delivered with a battery of lamps (TL 20W/12RS UV-B Philips Medical) before and after treatment with diacerein.
(§2) In other experiments, UVB irradiation was delivered only after diacerein addition.
(§3) Before irradiation, the cells were washed once with PBS and irradiated in presence of PBS.
(§4) Controls were sham irradiated for identical periods as measured by International Light Research Radiometer (Newburyport, Mass.).
(§5) Quantitation of cytokine levels was performed by a quantitative two-site enzyme immunoassay according to manufacturer's instructions, using ELISA kits for IL-1, IL-6, IL-8 and TNF-α.
(§6) The sample concentration was determined by absorbance at 450 nm with the correction wavelength set at 540 nm.
As TNF-α is a potent inducer of IL-8 in keratinocytes and plays an important role in the pathogenesis of psoriasis, the effect of diacerein on IL-8 was also evaluated after stimulating keratinocytes with TNF-α.

IL-1 = IL-1 release from keratinocytes by ELISA; assay type: cell-based, human
Procedure: as §1, §2, §3, §4, §5, §6
IL-1 is constitutively expressed in human keratinocytes. IL-1 release was measured after the addition of increasing doses of diacerein.

prostaglandin PGE2 = settings: cited from earlier work
[1] = test system: cytokines of the IL-1 family, especially IL-1β; settings: prior knowledge; cited from earlier work
human keratinocytes = experiment: Viability of keratinocytes by trypan blue exclusion; assay type: cell-based; settings: increasing doses, 24 and 96 hours, except 100 and 200 μM at 96 hours
Procedure: Human epidermal keratinocytes were obtained from foreskin by dispase II (5 mg/ml for 60 minutes at 37° C., Boehringer Mannheim, Germany) separation of epidermal sheets.
The epidermis was incubated in 0.25% trypsin/0.02% EDTA for 20 minutes a 37° C. and mechanically disaggregated.
The epidermal cell suspensions were plated (2.5×10^4/cm^2) on mytomicin C-treated 3T3-J2 cells (2.4×10^4/cm^2), ATCC, Rockville, Md., USA) and cultured in 5% CO2 humidified atmosphere in the keratinocyte growth medium: Dulbecco's modified Eagle's medium and Ham's F12 media (3:1 mixture, Biochrom KG, Berlin, Germany) containing fetal calf serum (10%, ICN Biomedicals, Aurora, Ohio), insulin ([…], Sigma, St.Louis, Mo., USA), transferrin ([…], Sigma), adenine (0.18 mM, Sigma), hydrocortisone ([…], Sigma), triiodothyronine (20 pM, Sigma), cholera toxin (0.1 nM, Sigma), epidermal growth factor (10 ng/ml, Sigma), 4 mM glutamine (Sigma), and penicillin/streptomycin (50 IU/ml, Biochrom.). […]
Cell viability was evaluated by trypan blue exclusion.
In order to understand the effects of diacerein on human keratinocytes, a possible alteration of vital parameters was evaluated by the trypan blue exclusion.

IL-6 = IL-6 release from keratinocytes by ELISA; assay type: cell-based, human
Procedure: as §1, §2, §3, §4, §5, §6
No constitutive levels of IL-6 are normally detected in human keratinocytes.
Therefore, IL-6 release was stimulated by UVB irradiation.

SMILES: CC(=O)Oc1cccc2c1C(=O)c1c(OC(C)=O)cc(C(=O)O)cc1C2=O [diacerein, 4,5-bis(acetyloxy)-9,10-dihydro-9,10-dioxo-2-anthracene carboxylic acid]
- doses with significant reduction of UVB-induced IL-8 levels (IL-8; 24 hours after UVB irradiation): 5 to 100 µM
- effect of timing of addition on IL-8 release (IL-8; UVB-irradiated keratinocytes): more effective when given both before and after UVB irradiation
- doses down-regulating TNF-α-induced IL-8 release (IL-8; keratinocytes stimulated with TNF-α, 24 hours): 50 to 200 µM
- effect on IL-8 (IL-8; normal conditions, no stimulus): unaffected
- effect on UVB-induced increase in IL-1 release (IL-1; 24 hours after UVB irradiation): prevented this effect
- dose down-regulating IL-1 release almost to baseline levels (IL-1; UVB-irradiated keratinocytes): 0.1 µM
- effect of timing of administration on IL-1 release (IL-1; before versus after UVB irradiation): more powerful when administered before UVB irradiation
- effect on constitutive levels of IL-1 (IL-1; normal conditions, no UVB): did not affect
- gastrotoxic potential (prostaglandin PGE2; inferred from no effect on PGE2 production): does not have gastrotoxic potential
- effect on prostaglandin PGE2 production (prostaglandin PGE2; prior knowledge): not to effect prostaglandin PGE2 production
- effect on synthesis and activity of pro-inflammatory catabolic cytokines of the IL-1 family, especially IL-1β [1]: inhibit the synthesis and activity
- alteration of keratinocyte viability (human keratinocytes): did not cause any significant alteration
- effect on UVB-induced IL-6 release (IL-6; 24 hours after irradiation): caused a reduction
- effect of timing of addition on IL-6 release (IL-6; UVB-irradiated keratinocytes): significantly more effective when added both before and after UVB light
- dose giving significant reduction in IL-6 release (IL-6; added both before and after UVB): 1 µM
- dose necessary for down regulation of IL-6 (IL-6; administered only before UVB): 5 µM
- effect on IL-6 levels (IL-6; basic conditions, no UVB): did not affect
